The conditions of data set [1]: cited from earlier work.
For data set [2] the following is noted: in vivo. The procedure:
The study design was put into practice as the PAOLA-1/ENGOT-ov25 trial (NCT02477644), which was a randomised, double-blind, international phase III trial that enrolled patients with newly diagnosed, FIGO stage III-IV, high-grade serous or endometrioid ovarian cancer, fallopian tube or primary peritoneal cancer.
Patients were randomized in a 2:1 ratio to the treatments as specified below: • 1. Olaparib tablets orally 300 mg twice daily (bd) • 2. Placebo tablets orally 300 mg bd
The “overall study duration” phase was defined as from the first dose of olaparib or placebo until the last dose of olaparib or placebo+30 days (to account for the 30 day follow-up period).
Common Terminology Criteria for Adverse Events (CTCAE) (version 4.03) defines Grade 1 hypertension as having systolic BP 120-139 mmHg or diastolic BP 80-89 mm Hg; Grade 2 as having systolic BP 140-159 mmHg or diastolic BP 90-99 mm Hg, or recurrent or persistent (≥24 hrs) symptomatic increase by >20 mm Hg (diastolic) or to >140/90 mmHg; Grade 3 as having systolic BP ≥160 mmHg or diastolic BP ≥100 mmHg; Grade 4 hypertension as having life-threatening consequences, e.g., requiring urgent intervention; and Grade 5 hypertension as death.
An adverse event considered “serious” if, in the view of either the investigator or sponsor, it results in any of the following outcomes: death, a life-threatening adverse event, inpatient hospitalization or prolongation of existing hospitalization, or a persistent or significant incapacity or substantial disruption of the ability to conduct normal life functions.
Common Terminology Criteria for Adverse Events (CTCAE) (version 4.03) defines Grade 1 proteinuria as urine dipstick 1+ or <1.0 grams of protein per 24 hours; Grade 2 as urine dipstick 2+ or 1.0-3.4 grams of protein per 24 hours; Grade 3 as urine dipstick 4+ or ≥3.5 grams of protein per 24 hours.

In data set [3] the test system is patients with newly diagnosed, FIGO stage III-IV, high-grade serous or endometrioid ovarian cancer, fallopian tube or primary peritoneal cancer. Description: PAOLA-1/ENGOT-ov25 phase III trial, first line maintenance: progression-free survival and other efficacy variables. It is filed as in vivo, human. The procedure:
Olaparib tablets orally 300 mg twice daily (bd) • 2. Placebo tablets orally 300 mg bd
Patients included in the study were female patients with newly diagnosed advanced (FIGO (International Federation of Gynaecology and Obstetrics) Stage IIIB, IIIC or IV) ovarian cancer, primary peritoneal cancer and/or fallopian tube cancer that was histologically confirmed as: (a) high-grade serous, or (b) high-grade endometrioid, or (c) other epithelial non mucinous ovarian cancer in a patient with gBRCA1 or 2 deleterious mutation.
Additionally, patents had completed first line platinum-taxane chemotherapy prior to randomization. Specifically, the platinum-taxane based regimen consisted of a minimum of 6 and a maximum of 9 treatment cycles; however, if platinum-based therapy was discontinued early as a result of non-haematological toxicity specifically related to the platinum regimen, (i.e., neurotoxicity, hypersensitivity, etc.), patients must have received a minimum of 4 cycles of the platinum regimen. Intravenous, intraperitoneal, or neoadjuvant platinum based chemotherapy was also allowed; for weekly therapy, 3 weeks was considered to be 1 cycle.
Prior to randomization, patients had no evidence of disease (NED) or had been in clinical complete response (CR) or in partial response (PR) following first line treatment. There should have been no clinical evidence of disease progression (physical exam, imaging, or cancer antigen-125 (CA-125)) throughout the first line treatment and prior to study randomization.
Finally, patients were randomized at least 3 weeks and no more than 9 weeks after their last dose of chemotherapy (last dose is the day of the last infusion) and all major toxicities from the previous chemotherapy were resolved.
Tumor samples from the patients were tested post-randomization (but prior to database lock) using the Myriad myChoice® HRD Plus test in order to investigate efficacy in pre-defined biomarker subgroups. The Myriad myChoice® HRD Plus test is delivered from a single central laboratory in Salt Lake City, Utah; it detects and classifies the following biomarkers simultaneously in tumor tissue:
Myriad HRD status is based on the Myriad HRD score and tBRCAm status. A positive Myriad HRD status is determined either by presence of a tBRCA1/2 mutation or by an HRD score at or above a pre-specified cut-off in the absence of a BRCA1/2 mutation. The Myriad HRD cut-off of 42 detects 95% of BRCAm tumors and has been extensively investigated as a biomarker of PARP inhibitor benefit in ovarian cancer. The cut-off of 42 has now been FDA-approved for another PARP inhibitor for the treatment of relapsed ovarian cancer (Myriad myChoice® HRD test offered under the name myChoice® CDx). Reducing the cut-off to 33, enables detection of 99% of BRCAm tumors and retrospective analyses from 2 clinical studies raised the possibility that a 33 cut-off may provide greater precision in determining patients who may benefit from PARP inhibitor treatment.
The data cut-off (DCO) for the analysis of progression-free survival (PFS) PFS is time from randomization to first progression or death according to modified Response Evaluation Criteria in Solid Tumours (RECIST version 1.1). PFS took place when 474 progression events had occurred (58.8% maturity), approximately 45 months after the first patient was randomized. At this DCO, all efficacy, QoL and safety variables were analyzed, as appropriate, based on the amount of data available at that time.
PFS (based on investigator assessment) was the primary variable for the study and was analyzed based on the primary data cut-off using the investigator assessment population.

The mark [4] stands for this setting: overall population, KM estimate.
Setting [5] is: overall population, KM estimate, listed as placebo-plus-bevacizumab.
Setting [6] is: overall population, KM estimate, listed as placebo/bevacizumab.

Where “and” joins values, the source holds several entries; their conditions need not be identical. Equal entries are not always repeated.

As for “bevacizumab: recombinant humanized monoclonal IgG1 antibody, vascular endothelial growth factor inhibitor”, the “overall incidence of proteinuria (all grades)” value in data set [1] (Study BO17705) was 20%. For the same compound, the “patients in whom proteinuria did not resolve” value in data set [1] (after median follow-up of 11.2 months) is given as 40%. The “proteinuria required discontinuation of bevacizumab” value in data set [1] (of the patients who developed proteinuria) is 30%. The “incidence of CTCAE Grade ≥3 hypertension” value in data set [2] is reported as “about 30%”.

As to `O=C(c1cc(Cc2n[nH]c(=O)c3ccccc23)ccc1F)N1CCN(C(=O)C2CC2)CC1` [olaparib, 4-[(3-{[4-(cyclopropane-carbonyl)piperazine-1-yl]carbonyl}-4-fluorophenyl)methyl]-2H-phthalazin-1-one], the “progression free survival greater than for subjects receiving bevacizumab alone” value in data set [3] (overall subject population, olaparib in addition to bevacizumab) was “at least 4 months”.

Take “Placebo/bevacizumab: Comparator arm: placebo tablets plus bevacizumab 15 mg/kg every 3 weeks (bevacizumab alone, without olaparib)”: in data set [3] (PFS2 data 39.1% mature), the “patients not classified as having had a second progression at the time of analysis (PFS2)” value was found to be 55.8%. Moreover, the “median time until the first subsequent treatment” value in data set [3] (all patients) was found to be 18.5 months. For the same compound, the “rate of freedom from second disease progression and death at 18 months” value in data set [3] (interim analysis of second progression-free survival, data maturity 39%, Kaplan-Meier estimate) is 80%. Also, in data set [3] (overall population), the “patients for whom progression occurred on treatment” value is on record as 71.6% and the “patients not classified as having progressed at the time of analysis” value was found to be 27.9%. For the same compound, the “n (%) of events (PFS)” value in data set [3] (overall population (FAS), investigator assessment, modified RECIST 1.1 or death, primary data cut-off) is reported as 194 (72.1) n (%). For the same compound, in data set [3] (setting [4]), the “Progression free at 6 months” value is given as 85.3%, the “Progression free at 12 months” value is 65.6%, the “Progression free at 18 months” value is reported as 45.8% and the “Progression free at 24 months” value is on record as 27.7%. Also, in data set [3] (setting [5]), the “Progression free at 12 months” value was 66%, the “Progression free at 18 months” value is given as 46% and the “Progression free at 24 months” value is listed as 28%. Further, in data set [3] (setting [6]), the “Progression free at 12 months” value is recorded as 65.6% and the “Progression free at 24 months” value is on record as 27.7%. Moreover, the “Median PFS (95% CI)” value in data set [3] (overall population, KM techniques) was 16.6 months and 16.6 (15.4, 18.6) months. Besides, the “proportion of patients with PFS events” value in data set [3] (overall population, at data cut-off (474 events, 58.8% maturity)) was found to be 72.1%. For the same compound, the median progression-free survival in data set [3] (patients with HRD-negative tumors (277 patients)) stood at 16.2 months. This compound came in with a median progression-free survival in data set [3] (patients with HRD-negative tumors or whose tumor HRD status was unknown (419 patients)) of 16.0 months. The compound also registered a median progression-free survival in data set [3] (patients with HRD-positive tumors that did not have BRCA mutations (FIG. 3D)) of 16.6 months. For the same compound, the median progression-free survival in data set [3] (patients with a tumor BRCA mutation (FIG. 3A)) worked out at 21.7 months. Besides, the median progression-free survival in data set [3] (patients with tumors positive for HRD (score ≥42 on myChoice HRD Plus or tumor BRCA mutation) (FIG. 3C)) worked out at 17.7 months. In data set [3] (patients without a tumor BRCA mutation (FIG. 3B)), the median progression-free survival is reported as 16.0 months. Also, in data set [2], the “Hypertension (serious adverse events)” value was 35 (13.1) Number (%) of patients, the “Hypertension CTCAE all Grades” value is given as 160 (59.9) Number (%) of patients, the “Proteinuria CTCAE Grade 3 or higher” value was 1 (0.4) Number (%) of patients and the “Proteinuria CTCAE all Grades” value is recorded as 40 (15.0) Number (%) of patients. Further, in data set [2], the “Vascular disorders (serious adverse events)” value is reported as 35 (13.1) Number (%) of patients, the “adverse drug reactions of proteinuria” value was found to be 15.4% and the “patients who reported adverse events (AEs)” value is 95.9%.

The values are drawn from patent publication US20240239883A1, “METHODS OF TREATING HOMOLOGOUS RECOMBINATION DEFICIENT CANCER” (ASTRAZENECA AB, priority 2020, published 2024).
